Data reported in patent publication US20090176873A1, “NOVEL USE OF ORGANIC COMPOUNDS” (DSM IP ASSETS B.V., priority 2005, published 2009).
Where two headings read alike, the source gives them in different places.

Columns and labels:
PGE2 production = assay: Inhibition of PGE2 formation in LPS-stimulated RAW 264.7 macrophages (EIA); format: cell-based, murine; conditions: Mus musculus, read-out: PGE2 Production by RAW Cells IC50
Protocol: (§1) The anti-inflammatory effects of the compounds were evaluated in activated macrophages by determining the inhibition of the synthesis of nitric oxide and/or PGE2. In order to induce an in vitro “inflammatory response”, murine macrophages RAW264.7 were stimulated with lipopolysaccharide (LPS) without or with graded amounts of the test substances. Murine macrophages RAW 264.7 cells respond to LPS-stimulation by the release of substantial amounts of Prostaglandin E2 (PGE2) and nitric oxide (NO), which is impaired by anti-inflammatory compounds. Prostaglandins PGE2 play a critical role in the inflammation process, while nitric oxide is a hallmark of inflammation in conditions like arthritis. Therefore, we evaluated the effect of the compounds on PGE2 and NO production.
RAW 264.7 cells: were cultured in Dulbecco's Modified eagle Medium (DMEM) supplemented with 10% fetal calf serum (FCS), 50 units/ml penicillin, 50 μg/ml streptomycin, L-glutamine and nonessential amino acids (NEM, Life Technologies, No. 11140). RAW cells were used between passage 10 and 50. For the experiments, cells were seeded into 6-well, 12-well or 96-well plates at 2, 1 and 0.05 mio cells per well, respectively, and used after 1 or 2 days of pre-culture. Cells were starved in complete DMEM medium containing 0.25% FCS 18 hours before the treatment. Cells were stimulated with LPS (1 μg/ml) for 24 hours in phenol-free DMEM containing 0.25% FCS. Substances to be tested were dissolved in DMSO (usually at 10 mM) and added to the culture medium concomitantly with the stimulus. […] After 24 hours nitrite concentrations were measured in culture supernatants by the Griess reaction and secreted PGE2 was determined by Enzyme immunoassay (EIA) in unstimulated and LPS-stimulated RAW264.7 cells. The compounds were simultaneously tested at different concentrations to obtain a dose response curve. […] The effects of compounds of the formula (I) on PGE2 production was also measured in the murine macrophage cell line RAW 264.7 (Table 1).

[1] = system: carrageenan-induced paw edema; assay: Carrageenan-induced paw edema in rats; format: in vivo; conditions: rat, 100 mg/kg oral; for Paw edema volume: mean of 10
Protocol: The anti-inflammatory activity of the compounds was evaluated in vivo in the carrageenan-induced paw edema rat model. This model has long been used to assess the anti-inflammatory properties of agents that inhibit prostaglandins, such as nonsteroidal anti-inflammatory drugs (NSAIDs) The model causes time-dependent edema formation following carrageenan administration into the sub-plantar surface of a rat paw. Twenty male Sprague-Dawley rats weighing 130 to 146 g were randomized in two groups. They were housed in a temperature (19.5-24.5° C.) and relative humidity (45-65%) controlled room with a 12-h light/dark cycle, with ad libitum access to filtered tap-water and standard pelleted laboratory chow throughout the study. They were housed 5 per cage and a 5-6-day acclimatization period was observed before any testing. Animals were individually identified on the tail. Ligustilide (100 mg/kg) suspended in 1% methylcellulose (in a volume of 10 mL/kg) or vehicle alone were administered by the oral route in a coded and random order after an overnight fast. One hour later, inflammation is induced by subplantar injection of a 2% carrageenan suspension into the right paw. The paw volume of each rat was measured in mL at the following time points: 0 h, 1.5 h, 3 h, and 4.5 h after the injection of carrageenan. The paw edema volume of each rat at each time point was expressed as the change from initial value. The anti-inflammatory effect on edema volume in treated-groups was expressed as % inhibition [(mean of vehicle-treated group paw edema volume−mean of the treated group paw edema volume)/mean of vehicle-treated group paw edema volume)×100]. All data of paw edema volume are expressed in mL as Mean of 10 rats in each group.

kaolin-induced arthritis = assay: Kaolin-induced arthritis in rats, gait score; format: in vivo; conditions: rat, 100 mg/kg oral; for Gait score: score from 0 to 3, mean of 10; for % improvement of gait score: vs control
Protocol: Twenty male Sprague Dawley rats weighing 103 g to 132 g, were included in this study. They were housed in a temperature (19.5-24.5° C.) and relative humidity (45-65%) controlled room with a 12-h light/dark cycle, with ad libitum access to filtered tap-water and standard pelleted laboratory chow, throughout the study. Upon receipt at animal facilities, they were housed 5 per cage and at least a 5-day acclimatization period were observed before any testing. Animals were individually identified on the tail. Arthritis is induced by injection of a 10% kaolin suspension into the knee joint of the rat right hindpaw. In the vehicle-treated group, injection of kaolin suspension into the knee joint of the rat right hindpaw induced an impairment of the gait, evaluated by an increase of the gait score (score from 0 to 3). Gait of animals is used to measure the spontaneous painful behavior. Ligustilide (100 mg/kg) suspended in 1% methylcellulose (in a volume of 10 ml/kg) or vehicle alone were administered by oral route in a coded and random order, 30 min after kaolin injection. The assessment of score behavior was monitored every hour from 1.5 hours to 5.5 hours following drug dosing. The mean gait score was calculated from individual values at each time. The percentage of inhibition of the mean gait score as compared to the mean value of the control group was calculated 1.5, 2.5, 3.5, 4.5 hours and 5.5 hours after dosing.
The results are expressed for each group as the mean of the gait scores of 10 animals per group.

IL-6 = assay: Gene expression in LPS-stimulated THP-1 cells, quantitative RT-PCR; format: cell-based, human; conditions: THP-1, ligustilide 25 μM, LPS 1 μg/ml, 4 hours
Protocol: (§2) THP-1 cells, a human monocyte/histiocyte cell line, were cultured in RPMI 1640 medium supplemented with 10% FCS, 50 units/ml penicillin, […] streptomycin, NEM and 2×10^−5 M β-mercaptoethanol. Cells were treated with 50 nM phorbol myristate acetate for 3 days. Cells were starved overnight in medium containing 0.25% FCS before being treated. Cells were stimulated with LPS (1 μg/ml) for 4 hours in phenol-free RPMI containing 0.25% FCS. Ligustilide (25 μM) was added to the culture medium concomitantly with the stimulus. […] LPS-stimulation induces the expression of a large variety of genes including those of inflammatory pathways. After 4 hours of stimulation we have evaluated the impact of ligustilide on the expression of inflammatory genes using quantitative real-time RT-PCR (reverse transcriptase polymerase chain reaction) technology (Table 2).

TNF-α = assay: as above; format: cell-based, human; conditions: THP-1, ligustilide 25 μM, LPS 1 μg/ml, 4 hours
Protocol: as §2

IL-1α = assay: as above; format: cell-based, human; conditions: THP-1, ligustilide 25 μM, LPS 1 μg/ml, 4 hours
Protocol: as §2

MIP-2 = assay: as above; format: cell-based, human; conditions: THP-1, ligustilide 25 μM, LPS 1 μg/ml, 4 hours
Protocol: as §2

IL-8 = assay: as above; format: cell-based, human; conditions: THP-1, ligustilide 25 μM, LPS 1 μg/ml, 4 hours
Protocol: as §2

MIP-3α = assay: as above; format: cell-based, human; conditions: THP-1, ligustilide 25 μM, LPS 1 μg/ml, 4 hours
Protocol: as §2

COX-2 = assay: as above; format: cell-based, human; conditions: THP-1, ligustilide 25 μM, LPS 1 μg/ml, 4 hours
Protocol: as §2

[2] = system: intercellular adhesion molecule 1 (ICAM-1) mRNA; assay: ICAM-1 mRNA level in TNF-α stimulated HUVEC, quantitative RT-PCR; format: cell-based, human; conditions: 2 hours of stimulation
Protocol: (§3) Artherosclerotic lesions can develop as a consequence of endothelial dysfunction. This is reflected by altered i.e. increased adhesion of monocytes to endothelial layers. We evaluated the effect of ligustilide on adhesion of U937, a monocyte cell line, to human umbilical cord endothelial cells (HUVEC). HUVEC were stimulated with TNF-α in the absence or presence of ligustilide (25 or 50 μmol/L) for 20 hours and the adhesion of U937 was determined according to Carluccio et al. (Arterioscler Thromb Vasc Biol 2003; 23, 622-629). […] Adhesion of monocytes to endothelial layers is mediated by the expression of intercellular adhesion molecule 1 (ICAM-1). Therefore, we further analyzed the effects of ligustilide on the level of ICAM-1 mRNA in HUVEC by quantitative RT-PCR.

[3] = system: nitric oxide (NO) production; assay: Inhibition of nitric oxide production in LPS-stimulated RAW264.7 macrophages (Griess reaction); format: cell-based, murine; conditions: Mus musculus; RAW264.7, LPS 1 μg/ml, 24 hours
Protocol: as §1
RAW 264.7 cells: were cultured in Dulbecco's Modified eagle Medium (DMEM) supplemented with 10% fetal calf serum (FCS), 50 units/ml penicillin, 50 μg/ml streptomycin, L-glutamine and nonessential amino acids (NEM, Life Technologies, No. 11140). […] After 24 hours nitrite concentrations were measured in culture supernatants by the Griess reaction and secreted PGE2 was determined by Enzyme immunoassay (EIA) in unstimulated and LPS-stimulated RAW264.7 cells. […] The effects of compounds of the formula (I) on PGE2 production was also measured in the murine macrophage cell line RAW 264.7 (Table 1).

Collagen 1 = assay: Gene expression in IL-1β activated chondrocytes, RT-PCR; format: cell-based; conditions: 4 hours, SW1353 or normal human chondrocytes, concentration not given
Protocol: (§4) Articulate tissues i.e. joints contain chondrocytes. Their physiological deterioration leads to the erosion of joint tissue components and thus to e.g. osteoarthritis. We have evaluated the effect of ligustilide on catabolic events in chondrocytes. SW1353 chondrosarcoma cells or normal human chondrocytes (derived from knee) were activated with interleukin-1β in the presence of graded amount of test compounds for 4 hours. RNA was then extracted from these cells and reverse-transcribed. Expression of marker genes for catabolic events like matrix metalloproteinases (MMPs) was determined by quantitative real time polymerase chain reaction (RT-PCR). As shown in Table 5 ligustilide influenced the expression level of several MMPs, which are critically involved in the destruction of extracellular matrix. Ligustilide reduced its expression and thus is supposed to prevent tissue erosion in osteoarthritic diseases.

MMP-3 = assay: as above; format: cell-based; conditions: 4 hours, SW1353 or normal human chondrocytes, concentration not given
Protocol: as §4

MMP-1 = assay: as above; format: cell-based; conditions: 4 hours, SW1353 or normal human chondrocytes, concentration not given
Protocol: as §4

MMP-9 = assay: as above; format: cell-based; conditions: 4 hours, SW1353 or normal human chondrocytes, concentration not given
Protocol: as §4

MMP-13 = assay: as above; format: cell-based; conditions: 4 hours, SW1353 or normal human chondrocytes, concentration not given
Protocol: as §4

Collagen 2 = assay: as above; format: cell-based; conditions: 4 hours, SW1353 or normal human chondrocytes, concentration not given
Protocol: as §4

[4] = system: adhesion of U937 to human umbilical cord endothelial cells (HUVEC); assay: Adhesion of U937 monocytes to TNF-α stimulated HUVEC; format: cell-based; conditions: 20 hours stimulation
Protocol: as §3

[5] = RAW264.7, RAW 264.7, LPS 1 μg/ml, 24 hours

## CCCC[C@@H]1OC(=O)c2ccccc21 [3-Butylphthalide, 3S-Butylphthalide]
PGE2 production; [5]
  IC50: 3 µM

## CCC/C=C1\OC(=O)C2=C1CCC=C2 [Ligustilide]
[1]; 1.5 h after carrageenan
  % Inhibition of paw edema volume vs vehicle-treated group: 29%
  Paw edema volume: 0.17 mL
[1]; 3 h after carrageenan
  % Inhibition of paw edema volume vs vehicle-treated group: 27%
  Paw edema volume: 0.32 mL
[1]; 4.5 h after carrageenan
  % Inhibition of paw edema volume vs vehicle-treated group: 11%
  Paw edema volume: 0.40 mL
kaolin-induced arthritis; 1.5 hours after dosing
  Gait score: 0.3
  % improvement of gait score: 25%
kaolin-induced arthritis; 2.5 hours after dosing
  Gait score: 0.4
  % improvement of gait score: 43%
kaolin-induced arthritis; 3.5 hours after dosing
  Gait score: 0.6
  % improvement of gait score: 50%
kaolin-induced arthritis; 4.5 hours after dosing
  Gait score: 0.9
  % improvement of gait score: 53%
kaolin-induced arthritis; 5.5 hours after dosing
  Gait score: 1.3
  % improvement of gait score: 38%
kaolin-induced arthritis; at 3.5, 4.5 and 5.5 hours after dosing
  Analgesic effect in comparison to the control group: significant analgesic effect
IL-6
  Gene expression (in %) relative to LPS control, IL-6: 52.3%
TNF-α
  Gene expression (in %) relative to LPS control, TNF-α: 50.6%
IL-1α
  Gene expression (in %) relative to LPS control, IL-1α: 15.2%
MIP-2
  Gene expression (in %) relative to LPS control, MIP-2: 52.0%
IL-8
  Gene expression (in %) relative to LPS control, IL-8: 72.4%
MIP-3α
  Gene expression (in %) relative to LPS control, MIP-3α: 67.2%
COX-2
  Gene expression (in %) relative to LPS control, COX-2: 24.1%
[2]; TNF-α + 25 μM ligustilide
  % reduction of expression (ICAM-1 mRNA): 58%
  Relative ICAM-1 mRNA level: 25 ± 6 arbitrary units
[2]; TNF-α + 50 μM ligustilide
  % reduction of expression (ICAM-1 mRNA): 73%
  Relative ICAM-1 mRNA level: 16 ± 1 arbitrary units
[3]
  IC50: 12.2 ± 3.1 µM
PGE2 production; [5]
  IC50: 3.2 µM
Collagen 1
  Gene expression (in %) relative to IL-1β activated chondrocytes, Collagen 1: 115%
MMP-3
  Gene expression (in %) relative to IL-1β activated chondrocytes, MMP-3: 2%
MMP-1
  Gene expression (in %) relative to IL-1β activated chondrocytes, MMP-1: 17%
MMP-9
  Gene expression (in %) relative to IL-1β activated chondrocytes, MMP-9: 33%
MMP-13
  Gene expression (in %) relative to IL-1β activated chondrocytes, MMP-13: 50%
Collagen 2
  Gene expression (in %) relative to IL-1β activated chondrocytes, Collagen 2: 184%
[4]; TNF-α + 25 μM ligustilide
  % reduction of adherence: 39%
  Number of adherent cells: 61 ± 25
[4]; TNF-α + 50 μM ligustilide
  % reduction of adherence: 73%
  Number of adherent cells: 27 ± 21

## CCC/C=C1\OC(=O)c2ccccc21 [N-Butylidenephthalide, E + Z-3-Butylidenephthalide]
PGE2 production; RAW264.7, 24 h
  IC50: 3 µM
